{
  "source": "paper PMC9065794",
  "about": "(RSC Advances, 2019)",
  "key": {"[1]": {"biological_target": "T1, equine serum butyrylcholinesterase (EqBuChE) (Equus caballus, UniProt P81908)", "T1 sequence (P81908 whole entry)": "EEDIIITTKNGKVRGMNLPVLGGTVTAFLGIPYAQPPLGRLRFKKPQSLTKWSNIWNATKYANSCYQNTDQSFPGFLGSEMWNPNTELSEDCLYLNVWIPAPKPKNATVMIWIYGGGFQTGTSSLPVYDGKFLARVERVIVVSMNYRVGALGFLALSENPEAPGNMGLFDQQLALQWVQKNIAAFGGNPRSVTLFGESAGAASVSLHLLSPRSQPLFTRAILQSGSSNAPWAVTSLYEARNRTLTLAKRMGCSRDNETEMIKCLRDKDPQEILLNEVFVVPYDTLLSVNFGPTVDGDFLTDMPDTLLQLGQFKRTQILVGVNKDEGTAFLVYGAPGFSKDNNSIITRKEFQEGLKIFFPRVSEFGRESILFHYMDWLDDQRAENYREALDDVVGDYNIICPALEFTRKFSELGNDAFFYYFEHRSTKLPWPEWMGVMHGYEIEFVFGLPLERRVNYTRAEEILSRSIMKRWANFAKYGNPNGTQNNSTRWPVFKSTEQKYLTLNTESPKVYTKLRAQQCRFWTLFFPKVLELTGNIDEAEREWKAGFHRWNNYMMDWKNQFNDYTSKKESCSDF", "assay": "Anticholinesterase activity assay", "format": "biochemical, horse"}, "[2]": {"biological_target": "T2, electric eel acetylcholinesterase (EeAChE) (Electrophorus electricus, UniProt O42275)", "T2 sequence (O42275 24-633)": "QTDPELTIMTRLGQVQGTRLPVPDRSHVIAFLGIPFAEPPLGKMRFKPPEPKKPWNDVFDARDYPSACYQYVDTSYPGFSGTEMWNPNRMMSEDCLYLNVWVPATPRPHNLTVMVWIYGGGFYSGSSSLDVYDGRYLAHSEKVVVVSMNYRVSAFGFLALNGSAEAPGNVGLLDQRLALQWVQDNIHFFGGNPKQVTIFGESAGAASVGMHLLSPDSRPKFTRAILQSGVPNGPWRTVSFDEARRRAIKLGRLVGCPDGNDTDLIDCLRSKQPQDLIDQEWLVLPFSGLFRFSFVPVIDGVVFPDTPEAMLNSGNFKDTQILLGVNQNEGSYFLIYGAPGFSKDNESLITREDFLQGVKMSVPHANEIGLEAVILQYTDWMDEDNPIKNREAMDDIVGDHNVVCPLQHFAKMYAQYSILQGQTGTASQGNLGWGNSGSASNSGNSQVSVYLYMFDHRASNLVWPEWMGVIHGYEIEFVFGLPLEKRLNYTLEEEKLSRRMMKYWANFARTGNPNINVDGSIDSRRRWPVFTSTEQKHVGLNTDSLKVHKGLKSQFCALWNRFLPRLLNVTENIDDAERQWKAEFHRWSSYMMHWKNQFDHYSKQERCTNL", "assay": "Anticholinesterase activity assay", "format": "biochemical"}, "[3]": {"biological_target": "T2, electric eel acetylcholinesterase (EeAChE)", "assay": "Enzymatic kinetic study", "format": "biochemical"}, "[4]": {"biological_target": "T1, equine serum butyrylcholinesterase (EqBuChE)", "assay": "Enzymatic kinetic study", "format": "biochemical, horse"}},
  "data": [
    {"smiles": "c1ccc(CN2CCN(CCCCCCNc3nc(-c4ccccc4)n(-c4ccccc4)n3)CC2)cc1", "note": "[Compound 13d, N-(6-(4-benzylpiperazin-1-yl)hexyl)-1,5-diphenyl-1H-1,2,4-triazol-3-amine]", "values": [
      {"measurement": "IC50", "setting": "[1]", "result": "2.21 ± 0.068", "unit": "µM"},
      {"measurement": "IC50", "setting": "[2]", "result": "5.22 ± 0.188", "unit": "µM"}
    ]},
    {"smiles": "c1ccc(CN2CCN(CCCNc3nc(-c4ccccc4)n(-c4ccccc4)n3)CC2)cc1", "note": "[Compound 13a, N-(3-(4-benzylpiperazin-1-yl)propyl)-1,5-diphenyl-1H-1,2,4-triazol-3-amine]", "values": [
      {"measurement": "type of inhibition, AChE", "setting": "[3]", "result": "mixed-type inhibition"},
      {"measurement": "type of inhibition, BuChE", "setting": "[4]", "result": "mixed-type inhibition"}
    ]},
    {"smiles": "Nc1nc(-c2ccccc2)n(-c2ccccc2)n1", "note": "[Compound 6a, 1,5-Diphenyl-1,2,4-triazol-3-amine]", "values": [
      {"measurement": "cholinesterase inhibition (BuChE), in words", "setting": "[1]; at 30 μM", "result": "no significant cholinesterase inhibition"},
      {"measurement": "inhibition at 30 µM", "setting": "[1]; read-out: BuChE inhibition (class NA in IC50 column)", "result": "< 20", "unit": "%"},
      {"measurement": "cholinesterase inhibition (AChE), in words", "setting": "[2]; at 30 μM", "result": "no significant cholinesterase inhibition"},
      {"measurement": "inhibition at 30 µM", "setting": "[2]; read-out: AChE inhibition (class NA in IC50 column)", "result": "< 20", "unit": "%"}
    ]},
    {"smiles": "c1ccc(CN2CCN(CCCCCNc3nc(-c4ccccc4)n(-c4ccccc4)n3)CC2)cc1", "note": "[Compound 13c, N-(5-(4-benzylpiperazin-1-yl)pentyl)-1,5-diphenyl-1H-1,2,4-triazol-3-amine]", "values": [
      {"measurement": "IC50", "setting": "[1]", "result": "1.65 ± 0.059", "unit": "µM"},
      {"measurement": "IC50", "setting": "[2]", "result": "11 ± 0.251", "unit": "µM"}
    ]},
    {"smiles": "c1ccc(CN2CCN(CCCCNc3nc(-c4ccccc4)n(-c4ccccc4)n3)CC2)cc1", "note": "[Compound 13b, N-(4-(4-benzylpiperazin-1-yl)butyl)-1,5-diphenyl-1H-1,2,4-triazol-3-amine]", "values": [
      {"measurement": "IC50", "setting": "[1]", "result": "1.63 ± 0.111", "unit": "µM"},
      {"measurement": "IC50", "setting": "[2]", "result": "3.79 ± 0.061", "unit": "µM"}
    ]}
  ]
}
